pIC50: −log10 of the molar value.
Experiments:
[1] = molecular target: recombinant human VEGFR2 enzyme (Homo sapiens (Human), UniProt P35968); test: Inhibition of VEGFR2 kinase activity (Z'-LYTE Kinase Assay Kit); assay type: biochemical; conditions: ATP 50 μM; read-out: IC50 of inhibition effect on VEGFR2 kinase activity
Description: The inhibition effect of VEGFR2 kinase activity in vitro was determined by the following method.
The inhibition effect of the compounds of the present invention on VEGFR2 kinase activity was determined by the following experimental method:
After reaction at 25° C. for 2 hours, 5 μL of detection reagent was added to each well. […] The IC50 values of the compounds for enzyme inhibition were calculated using Graphpad prism software based on each concentration of the compound and the corresponding signal value thereof.

[2] = tested on: Smad signaling pathway of TGFβRI; test: Inhibition of Smad signaling pathway of TGFβRI (3TP-lux luciferase reporter in HepG2 cell); assay type: cell-based; conditions: Homo sapiens; HepG2 cell, 3TP-lux plasmid, 18 hours; read-out: IC50 on the inhibition of Smad signaling pathway of TGFβRI

Sequence of recombinant human VEGFR2 enzyme (P35968 20-1356): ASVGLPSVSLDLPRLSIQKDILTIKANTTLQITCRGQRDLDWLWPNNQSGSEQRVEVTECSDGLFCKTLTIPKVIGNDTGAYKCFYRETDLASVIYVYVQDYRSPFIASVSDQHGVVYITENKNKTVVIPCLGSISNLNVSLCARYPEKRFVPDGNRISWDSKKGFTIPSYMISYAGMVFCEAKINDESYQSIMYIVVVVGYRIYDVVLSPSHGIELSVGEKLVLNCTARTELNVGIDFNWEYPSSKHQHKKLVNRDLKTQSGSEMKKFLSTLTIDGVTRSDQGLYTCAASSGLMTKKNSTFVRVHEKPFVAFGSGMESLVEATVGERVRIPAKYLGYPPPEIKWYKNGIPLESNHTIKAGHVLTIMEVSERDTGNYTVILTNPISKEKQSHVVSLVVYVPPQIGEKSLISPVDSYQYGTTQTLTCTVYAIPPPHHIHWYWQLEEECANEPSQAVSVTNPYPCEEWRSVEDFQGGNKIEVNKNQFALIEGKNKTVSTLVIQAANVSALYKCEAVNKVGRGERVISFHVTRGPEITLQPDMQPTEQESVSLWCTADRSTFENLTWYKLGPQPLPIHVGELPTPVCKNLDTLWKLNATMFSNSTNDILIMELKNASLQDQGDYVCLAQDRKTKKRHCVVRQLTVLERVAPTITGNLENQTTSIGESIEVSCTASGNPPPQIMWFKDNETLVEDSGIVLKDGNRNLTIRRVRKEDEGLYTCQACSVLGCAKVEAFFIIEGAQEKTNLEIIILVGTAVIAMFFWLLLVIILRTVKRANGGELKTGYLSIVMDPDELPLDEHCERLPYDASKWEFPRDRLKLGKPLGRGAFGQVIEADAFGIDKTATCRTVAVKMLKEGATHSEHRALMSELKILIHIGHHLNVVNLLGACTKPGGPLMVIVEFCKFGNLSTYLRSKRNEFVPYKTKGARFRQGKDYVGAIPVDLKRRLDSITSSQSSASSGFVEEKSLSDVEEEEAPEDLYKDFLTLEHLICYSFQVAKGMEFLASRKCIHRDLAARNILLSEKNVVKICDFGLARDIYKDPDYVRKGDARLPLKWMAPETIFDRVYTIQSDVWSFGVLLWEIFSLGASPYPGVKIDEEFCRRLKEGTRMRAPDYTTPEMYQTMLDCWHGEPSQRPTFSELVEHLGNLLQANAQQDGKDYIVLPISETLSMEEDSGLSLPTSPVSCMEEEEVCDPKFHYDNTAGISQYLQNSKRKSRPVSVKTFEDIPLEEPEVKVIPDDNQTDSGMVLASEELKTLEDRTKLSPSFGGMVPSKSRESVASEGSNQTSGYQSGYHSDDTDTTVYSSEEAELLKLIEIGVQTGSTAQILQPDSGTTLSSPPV

Structure (SMILES) | pIC50 [1] | pIC50 [2]
Cc1cccc(-c2nc3n(c2-c2ccc4nccc(C(N)=O)c4c2)[C@H]2CC[C@@H]3C2)n1 [Example 1-1, 6-((5S,8R)-2-(6-Methylpyridin-2-yl)-5,6,7,8-tetrahydro-5,8-methanoimidazo[1,2-a]pyridin-3-yl)quinoline-4-carboxamide] | 5.52 | 7.44
NC(=O)c1ccnc2ccc(-c3c(-c4ccc(F)cn4)nc4n3[C@H]3CC[C@@H]4C3)cc12 [Example 39-1, 6-((5S,8R)-2-(5-Fluoropyridin-2-yl)-5,6,7,8-tetrahydro-5,8-methanoimidazo[1,2-a]pyridin-3-yl)quinoline-4-carboxamide] | 5.20 | 7.62
Cc1cccc(-c2nc3n(c2-c2ccc4nnc(C(N)=O)n4c2)[C@H]2CC[C@@H]3C2)n1 [Example 2-1, 6-((5S,8R)-2-(6-Methylpyridin-2-yl)-5,6,7,8-tetrahydro-5,8-methanoimidazo[1,2-a]pyridin-3-yl)[1,2,4]triazolo[4,3-a]pyridine-3-carboxamide] | 5.94 | 7.68
Cc1cccc(-c2nc3n(c2-c2ccnc(-c4ccc(S(C)(=O)=O)cc4)c2)[C@H]2CC[C@@H]3C2)n1 [Example 3-1, (5S,8R)-2-(6-Methylpyridin-2-yl)-3-(2-(4-(methylsulfonyl)phenyl)pyridin-4-yl)-5,6,7,8-tetrahydro-5,8-methanoimidazo[1,2-a]pyridine] | 5.54 | 7.72
